Experimental data as given in ChEMBL document CHEMBL1135800, “Carbonic anhydrase inhibitors: anticonvulsant sulfonamides incorporating valproyl and other lipophilic moieties” (J Med Chem, 2002).

What was measured:
[1] = target: Carbonic anhydrase 1 (Homo sapiens, UniProt P00915)
Description: Inhibitory effect on human carbonic anhydrase I

[2] = target: T1, Carbonic anhydrase 4 (Bos taurus, UniProt Q95323)
T1 sequence (Q95323 whole entry): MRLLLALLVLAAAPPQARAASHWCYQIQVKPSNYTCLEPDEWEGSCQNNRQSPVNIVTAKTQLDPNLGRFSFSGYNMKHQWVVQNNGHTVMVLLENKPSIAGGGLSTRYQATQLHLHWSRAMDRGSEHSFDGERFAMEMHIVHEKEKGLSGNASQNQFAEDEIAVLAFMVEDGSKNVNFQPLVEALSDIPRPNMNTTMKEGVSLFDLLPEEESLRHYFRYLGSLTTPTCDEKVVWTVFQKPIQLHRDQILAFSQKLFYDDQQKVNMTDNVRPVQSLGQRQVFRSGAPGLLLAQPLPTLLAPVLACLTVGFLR
Description: Inhibitory effect on bovine Carbonic anhydrase IV

[3] = target: Carbonic anhydrase 2 (Homo sapiens, UniProt P00918)
Description: Inhibitory effect on human Carbonic anhydrase II

[4] = tested on: Mus musculus; experiment: Anticonvulsant activity in mice by MES test at 0.5 hr following intraperitoneal injection of 30 mg/kg dose; format: functional
[5] = tested on: Mus musculus; experiment: Anticonvulsant activity in mice by MES test at 3.0 hr following intraperitoneal injection of 30 mg/kg dose.; format: functional
[6] = tested on: Mus musculus; experiment: Anticonvulsant activity in mice by MES test at 3.0 h following intraperitoneal injection of 30 mg/kg dose; format: functional
[7] = tested on: Mus musculus; experiment: Anticonvulsant activity in mice by MES test at 0.5 hr following intraperitoneal injection of 10 mg/kg dose; format: functional
[8] = tested on: Mus musculus; experiment: Anticonvulsant activity in mice by MES test at 3.0 hr following intraperitoneal injection of 10 mg/kg dose; format: functional
[9] = Activity in MES test with six to eight OFI male mice for each time at 30 mg/kg dose at 0.5 h; format: functional, Mus musculus
[10] = Activity in MES test with six to eight OFI male mice for each time at 30 mg/kg dose at 4.0 h; format: functional, Mus musculus
[11] = tested on: Mus musculus; experiment: Anticonvulsant activity in mice by MES test at 3.0 hr following intraperitoneal injection of 30 mg/kg dose; format: functional
[12] = Activity in MES test with six to eight OFI male mice for each time at 30 mg/kg dose at 2.0 h; format: functional, Mus musculus
[13] = organism: Mus musculus; experiment: MES test: number of mice treated / total number of mice at 2.0 h; format: functional
[14] = Activity in MES test with six to eight OFI male mice for each time at 30 mg/kg dose at 6.0 h; format: functional, Mus musculus
[15] = Activity in MES test with six to eight OFI male mice for each time at 30 mg/kg dose at 3.0 h; format: functional, Mus musculus
[16] = organism: Mus musculus; experiment: MES test: number of mice treated / total number of mice at 1.0 h; format: functional
[17] = organism: Mus musculus; experiment: MES test: number of mice treated / total number of mice at 3.0 h; format: functional
[18] = organism: Mus musculus; experiment: MES test: number of mice treated / total number of mice 4.0 h; format: functional
[19] = organism: Mus musculus; experiment: MES test: number of mice treated / total number of mice 6.0 h; format: functional
[20] = organism: Mus musculus; experiment: MES test: number of mice treated / total number of mice at 0.5 h; format: functional
[21] = Activity in MES test with six to eight OFI male mice for each time at 30 mg/kg dose at 1.0 h; format: functional, Mus musculus
[22] = tested on: Mus musculus; experiment: Anticonvulsant activity in mice by MES test at 3.0 hr following intraperitoneal injection of 10 mg/kg dose.; format: functional
[23] = tested on: Mus musculus; experiment: Anticonvulsant activity in mice by MES test at 0.5 hr following intraperitoneal injection of 10 mg/kg dose.; format: functional
[24] = tested on: Mus musculus; experiment: Anticonvulsant activity in mice by MES test at 0.5 h following intraperitoneal injection of 30 mg/kg dose.; format: functional

Sequence of Carbonic anhydrase 1 (P00915 whole entry): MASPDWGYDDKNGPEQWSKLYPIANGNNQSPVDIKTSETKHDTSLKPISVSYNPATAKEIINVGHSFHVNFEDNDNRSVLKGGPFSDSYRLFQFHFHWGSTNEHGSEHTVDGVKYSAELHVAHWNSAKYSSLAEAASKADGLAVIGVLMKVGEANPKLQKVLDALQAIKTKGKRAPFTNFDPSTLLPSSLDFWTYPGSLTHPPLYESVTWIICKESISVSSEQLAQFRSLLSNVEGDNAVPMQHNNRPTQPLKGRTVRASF

Compound | Ki [1] | Ki [2] | Ki [3] | Protected mice [5] | also measured
CCCC(CCC)C(=O)Nc1ccc(S(N)(=O)=O)cc1Br | 600 nM | 49 nM | 36 nM | – | –
CCCC(CCC)C(=O)Nc1cccc(S(N)(=O)=O)c1 | 19000 nM | 740 nM | 221 nM | – | –
COc1cc(C(=O)Nc2nnc(S(N)(=O)=O)s2)cc(OC)c1OC | 900 nM | 51 nM | 10 nM | 67% | Protected mice [4]: 25%
CC1(C)O[C@@H]2[C@@H](CO[C@@]3(COS(N)(=O)=O)OC(C)(C)O[C@@H]23)O1 [TOPIRAMATE] | – | 54 nM | – | – | Protected mice [6]: 83%; Protected mice [4]: 100%; Protected mice [7]: 62%; Protected mice [8]: 50%
CCCC(CCC)C(=O)Nc1nnc(S(N)(=O)=O)s1 | 50 nM | 25 nM | 6 nM | – | Protected mice [9]: 96%; Protected mice [10]: 50%; Protected mice [11]: 93%; Protected mice [12]: 100%; No. of mice [13]: 8; Protected mice [14]: 63%; Protected mice [4]: 96%; Protected mice [15]: 93%; No. of mice [16]: 6.5; No. of mice [17]: 7; No. of mice [18]: 4; Protected mice [7]: 25%; No. of mice [19]: 5; No. of mice [20]: 7.5; Protected mice [21]: 81%; Protected mice [8]: 100%
Cc1ccc(S(=O)(=O)Nc2nnc(S(N)(=O)=O)s2)cc1 | 5 nM | 3 nM | 4 nM | 75% | Protected mice [4]: 92%; Protected mice [22]: 62%; Protected mice [23]: 12%
NS(=O)(=O)c1nnc(NC(=O)c2ccccc2)s1 | 38 nM | 21 nM | – | 25% | Protected mice [24]: 83%
CC(=O)/N=c1/sc(S(N)(=O)=O)nn1C [METHAZOLAMIDE] | – | – | – | 100% | Protected mice [24]: 83%; Protected mice [22]: 88%; Protected mice [23]: 75%
CCCC(CCC)C(=O)NCc1ccc(S(N)(=O)=O)cc1 | 3700 nM | 210 nM | 96 nM | – | –
CCCC(CCC)C(=O)Nc1ccc(S(N)(=O)=O)cc1I | 550 nM | 85 nM | 43 nM | – | –
CC(C)(C)C(=O)Nc1nnc(S(N)(=O)=O)s1 | 110 nM | 46 nM | – | 100% | Protected mice [4]: 75%; Protected mice [22]: 87%; Protected mice [23]: 44%
CCCC(CCC)C(=O)Nc1c(S(N)(=O)=O)cc(S(N)(=O)=O)c(Cl)c1Cl | 970 nM | 155 nM | 26 nM | – | –
CCCC(CCC)C(=O)Nc1ccccc1S(N)(=O)=O | 23000 nM | 950 nM | 255 nM | – | –
CCCC(CCC)C(=O)Nc1ccc(S(N)(=O)=O)cc1F | 1000 nM | 110 nM | 45 nM | – | –
CCCC(CCC)C(=O)/N=c1/sc(S(N)(=O)=O)nn1C | 70 nM | 42 nM | 10 nM | – | –
CCCC(CCC)C(=O)Nc1ccc(S(N)(=O)=O)cc1Cl | 950 nM | 125 nM | 50 nM | – | –

Compound | Ki [1] | Ki [2] | Ki [3] | Protected mice [5] | also measured
NS(=O)(=O)c1nnc(NC(=O)C23C[C@H]4C[C@@H](C2)C[C@@H](C3)C4)s1 | 850 nM | 65 nM | – | 96% | Protected mice [24]: 83%; Protected mice [22]: 93%; Protected mice [23]: 25%
NS(=O)(=O)c1nnc(NS(=O)(=O)Cc2ccccc2)s1 | 7 nM | 6 nM | 5 nM | 38% | Protected mice [24]: 67%
CCCC(CCC)C(=O)NCCc1ccc(S(N)(=O)=O)cc1 | 3500 nM | 200 nM | 84 nM | – | –
CCCC(CCC)C(=O)Nc1ccc(S(N)(=O)=O)cc1 | 22500 nM | 630 nM | 240 nM | – | –
CCCC(CCC)C(=O)NNc1ccc(S(N)(=O)=O)cc1 | 35600 nM | 950 nM | 300 nM | – | –
CCCC(CCC)C(=O)NCCC(=O)Nc1nnc(S(N)(=O)=O)s1 | 360 nM | 76 nM | 9 nM | – | –
NS(=O)(=O)c1nnc(NS(=O)(=O)c2ccc(NC(=O)[C@@H]3C4C=CC(C4)C3C(=O)O)cc2)s1 (stereo partly drawn) | 5.5 nM | 4 nM | 1.5 nM | 33% | Protected mice [24]: 25%
CCCC(CCC)C(=O)Oc1ccc2nc(S(N)(=O)=O)sc2c1 | 50 nM | 15 nM | 7 nM | – | –
CCCC(CCC)C(=O)Nc1ccc2nc(S(N)(=O)=O)sc2c1 | 62 nM | 16 nM | 7 nM | – | –
Cc1ccc(S(=O)(=O)NC(=O)Nc2nnc(S(N)(=O)=O)s2)cc1 | 3 nM | 12 nM | 4 nM | 33% | Protected mice [24]: 8%
CCCC(CCC)C(=O)OCc1ccc(S(N)(=O)=O)cc1 | 1500 nM | 333 nM | 115 nM | – | –
CCCC(CCC)C(=O)OCCOc1ccc2nc(S(N)(=O)=O)sc2c1 | 50 nM | 13 nM | 7 nM | – | –
CCCC(CCC)C(=O)OCCc1ccc(S(N)(=O)=O)cc1 | 1300 nM | 313 nM | 844 nM | – | –
CC(C)(C)OC(=O)Nc1nnc(S(N)(=O)=O)s1 | 460 nM | 130 nM | 9 nM | 60% | Protected mice [24]: 75%
CCCC(CCC)C(=O)Nc1cc(Cl)c(S(N)(=O)=O)cc1S(N)(=O)=O | 800 nM | 133 nM | 70 nM | – | –
NS(=O)(=O)c1nnc(NC(=O)CCNS(=O)(=O)c2ccc(I)cc2)s1 | 260 nM | 120 nM | 1.2 nM | – | Protected mice [11]: 25%; Protected mice [24]: 33%
